We go through one compound from patent US20150258020A1, “CHEWABLE TABLETS COMPRISING LEVONORGESTREL” (priority 2014, published 2015).

For this data set the following is noted: particle size by volume, laser light diffraction, dry dispersion.

Source text: Particle size determination of Levonorgestrel
Equipment • Diffractometer of laser light, Mastersizer 3000 or equivalent • Micro analytical balance or semimicro
Weigh approximately 0.2-0.3g of the drug substance, and introduce to the dry accessory.
Dispersion Unit: MAZ3500 and cell (AD01)
Refraction index: 1.5/1.5 (red light/blue light)
Distribution Format: • Single mode • Enhanced sensitivity • Fine powder (activate)
Background run time: 10 s
Filter obscuration: 0.5-6%
Sampler settings: • Vibration feed rate: 50% • Dispersive air pressure: 2.5 bar

For the compound `C#C[C@]1(O)CC[C@H]2[C@@H]3CCC4=CC(=O)CC[C@@H]4[C@H]3CC[C@@]21CC` [Ultra-micronized levonorgestel, Levonorgestrel], the D10 is 0.2 μm, the D50 was 1.0 μm and the D90 worked out at 1.1 μm.
